This note sets out measurements from patent publication US7223796B2, “Acyl-4-carboxyphenylurea derivatives, processes for preparing them and their use” (Sanofi-aventis Deutschland GmbH, priority 2002, dated 2007).

Data set [1] deals with T1, Human glycogen phosphorylase a (Homo sapiens, UniProt P06737).
T1 sequence (P06737 2-847 limits assumed): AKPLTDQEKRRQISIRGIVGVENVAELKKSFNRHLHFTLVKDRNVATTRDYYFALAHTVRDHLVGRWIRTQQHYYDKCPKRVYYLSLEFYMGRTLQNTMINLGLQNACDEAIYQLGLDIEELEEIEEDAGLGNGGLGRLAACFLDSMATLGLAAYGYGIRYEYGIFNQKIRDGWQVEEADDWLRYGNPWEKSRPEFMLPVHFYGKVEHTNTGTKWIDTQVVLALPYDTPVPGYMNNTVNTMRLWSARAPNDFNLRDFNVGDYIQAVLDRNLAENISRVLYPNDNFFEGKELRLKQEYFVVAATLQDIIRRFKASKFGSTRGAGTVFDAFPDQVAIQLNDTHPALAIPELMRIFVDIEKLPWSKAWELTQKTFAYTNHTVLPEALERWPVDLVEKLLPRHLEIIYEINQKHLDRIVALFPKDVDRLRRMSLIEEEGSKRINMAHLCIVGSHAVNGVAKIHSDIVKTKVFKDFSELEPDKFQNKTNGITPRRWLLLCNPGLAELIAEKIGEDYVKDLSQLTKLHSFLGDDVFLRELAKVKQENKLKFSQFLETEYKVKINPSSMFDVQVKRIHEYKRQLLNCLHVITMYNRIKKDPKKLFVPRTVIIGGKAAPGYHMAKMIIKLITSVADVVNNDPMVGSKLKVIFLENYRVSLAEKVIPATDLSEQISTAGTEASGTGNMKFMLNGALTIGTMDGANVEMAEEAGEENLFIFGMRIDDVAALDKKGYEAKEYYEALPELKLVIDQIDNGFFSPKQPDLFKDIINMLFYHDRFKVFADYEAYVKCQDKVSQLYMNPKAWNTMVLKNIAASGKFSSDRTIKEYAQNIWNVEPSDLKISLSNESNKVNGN
Description: Glycogen phosphorylase a activity test. The data set is classed as biochemical. The settings on record: read-out: % inhibition at 10 μM; 10 μM test substance; GPa measured in reverse direction (glycogen synthesis from glucose 1-phosphate, phosphate release).
Description: Glycogen Phosphorylase a Activity Test
All the reactions were carried out as duplicate determinations in 96-well microtiter plates (Half Area Plates, Costar No. 3696), with the change in absorption due to the formation of the reaction product being measured, at the wavelength specified below, in a Multiscan Ascent Elisa Reader (Lab Systems, Finland). In order to measure the enzymic activity of GPa in the reverse direction, the conversion of glucose 1-phosphate into glycogen and inorganic phosphate was measured in accordance with the general method of Engers et al. (Engers H D, Shechosky S, Madsen N B, Can J Biochem 1970 July;48(7): 746–754) but with the following modifications: Human glycogen phosphorylase a (for example containing 0.76 mg of protein/ml (Aventis Pharma Deutschland GmbH), dissolved in buffer solution E (25 mM β-glycerophosphate, pH 7.0, 1 mM EDTA and 1 mM dithiothreitol), was diluted with buffer T (50 mM Hepes, pH 7.0, 100 mM KCl, 2.5 mM EDTA, 2.5 mM MgCl2.6H2O), and addition of 5 mg of glycogen/ml, to a concentration of 10 μg of protein/ml. […] The basal value of the activity of the glycogen phosphorylase a in the absence of test substance was determined by adding 10 μl of buffer solution T (0.1% DMSO). […] After 60 minutes of incubation at 45° C., the absorption was measured at 820 nm. […]

For orientation: inhibition means the percentage by which the read-out fell short of the control. As usually defined, the melting point is the temperature of the solid-liquid transition.

The molecule `O=C(NC(=O)c1cc(F)c(F)cc1Cl)Nc1ccc(C(=O)O)cc1OC(F)(F)F` [Example 48, 4-[3-(2-Chloro-4,5-difluorobenzoyl)ureido]-3-trifluoromethoxybenzoic acid] displayed a melting point of 236 °C. Moreover, the inhibition at 10 µM in data set [1] turned out to be 99%.
